The text below walks through data of PMC6471485, “Selective Inhibitors of a Human Prolyl Hydroxylase (OGFOD1) Involved in Ribosomal Decoding” (Chemistry (Weinheim an Der Bergstrasse, Germany), 2019).

One assay deals with FIH (Homo sapiens, UniProt Q9NWT6). Briefly: FIH assay, MALDI-TOF MS detection of hydroxylation. Type of assay: biochemical.
Another assay addresses T1, KDM4A (Homo sapiens, UniProt O75164).
T1 sequence (O75164 1-1064): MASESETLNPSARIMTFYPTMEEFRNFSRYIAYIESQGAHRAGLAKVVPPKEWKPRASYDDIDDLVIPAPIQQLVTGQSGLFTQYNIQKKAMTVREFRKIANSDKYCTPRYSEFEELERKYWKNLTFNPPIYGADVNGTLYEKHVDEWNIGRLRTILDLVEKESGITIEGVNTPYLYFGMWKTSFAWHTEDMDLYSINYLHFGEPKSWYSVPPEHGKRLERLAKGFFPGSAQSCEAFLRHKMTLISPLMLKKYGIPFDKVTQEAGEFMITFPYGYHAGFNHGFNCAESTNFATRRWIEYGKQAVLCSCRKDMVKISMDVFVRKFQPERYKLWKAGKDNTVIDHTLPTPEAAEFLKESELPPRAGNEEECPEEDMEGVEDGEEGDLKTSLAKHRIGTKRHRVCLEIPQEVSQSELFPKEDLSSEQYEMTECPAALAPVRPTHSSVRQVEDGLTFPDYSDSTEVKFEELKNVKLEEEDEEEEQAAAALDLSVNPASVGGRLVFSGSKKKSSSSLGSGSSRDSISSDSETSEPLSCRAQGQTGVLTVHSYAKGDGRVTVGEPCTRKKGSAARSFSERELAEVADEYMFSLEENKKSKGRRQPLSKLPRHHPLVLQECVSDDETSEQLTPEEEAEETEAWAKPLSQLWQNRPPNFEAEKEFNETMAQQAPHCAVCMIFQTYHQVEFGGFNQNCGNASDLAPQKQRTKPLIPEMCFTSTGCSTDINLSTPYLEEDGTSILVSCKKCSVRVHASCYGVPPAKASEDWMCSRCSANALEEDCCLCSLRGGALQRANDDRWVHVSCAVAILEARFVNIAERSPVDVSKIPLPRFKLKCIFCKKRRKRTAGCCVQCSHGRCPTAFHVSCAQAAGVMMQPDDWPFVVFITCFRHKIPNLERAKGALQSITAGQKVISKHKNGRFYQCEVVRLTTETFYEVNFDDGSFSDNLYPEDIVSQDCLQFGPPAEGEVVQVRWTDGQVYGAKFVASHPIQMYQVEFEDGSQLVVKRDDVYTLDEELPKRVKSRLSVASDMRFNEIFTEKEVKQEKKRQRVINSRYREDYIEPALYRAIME
Briefly: KDM4A formaldehyde dehydrogenase (FDH) assay. Format: biochemical. How it is done: (§1) reactions were quenched after 4 min. KDM4A inhibition was tested as described previously using a formaldehyde dehydrogenase (FDH) assay.[9] JARID1B and JARID1C inhibition was tested as described previously using reported AlphaScreen-based assays.[10] MINA531-464 and NO66116-641 were cloned into pFB-LIC-Bse, and the N-terminal His-tagged proteins were produced in Sf9 insect cells. The MINA53 peptide substrate Rpl27a […]
(§2) (Gly31 – Pro49 […]) and the NO66 peptide substrate Rpl8
(§3) (Asn205 – Thr224 […]) were synthesized by Peptide Protein
(§4) Research Ltd (Fareham, Hampshire, UK) to >95% purity. IC50 determinations were performed in 384-well polypropylene plates (Greiner Bio One, Cat Number 781096), and compound dispenses were performed using an ECHO 550 acoustic dispenser (Labcyte, Sunnyvale, CA).
(§5) NO66 (diluted to 375 nM in 50 mM MES pH 7.0, 150 mM NaCl) and MINA53 (diluted to 187.5 nM in 50 mM HEPES pH 7.5, 50 mM NaCl) were dispensed (40 µL) into 384-well compound plates using a multidrop combi reagent dispenser (Thermo Scientific, Code 5840300) with a small tube plastic tip dispensing cassette (Thermo Scientific, Code 24073290).
(§6) NO66 and MINA53 were pre-incubated with compound for 15 minutes, and the enzyme reaction initiated by dispensing 10 µL of substrate solution [250 µM (NH4)2Fe(SO4)2, 500 µM sodium ascorbate, 25 µM 2OG, 25 µM peptide] in optimized enzyme buffer. […]

The next assay has as its target JARID1B (Homo sapiens, UniProt Q9UGL1). In words: JARID1B AlphaScreen-based assay. Type of assay: biochemical. How it is done:
as §1, §2, §3, §4, §5, §6

A further assay concerns the target T2, Ofd1 (Schizosaccharomyces pombe, UniProt Q11120).
T2 sequence (Q11120 1-515): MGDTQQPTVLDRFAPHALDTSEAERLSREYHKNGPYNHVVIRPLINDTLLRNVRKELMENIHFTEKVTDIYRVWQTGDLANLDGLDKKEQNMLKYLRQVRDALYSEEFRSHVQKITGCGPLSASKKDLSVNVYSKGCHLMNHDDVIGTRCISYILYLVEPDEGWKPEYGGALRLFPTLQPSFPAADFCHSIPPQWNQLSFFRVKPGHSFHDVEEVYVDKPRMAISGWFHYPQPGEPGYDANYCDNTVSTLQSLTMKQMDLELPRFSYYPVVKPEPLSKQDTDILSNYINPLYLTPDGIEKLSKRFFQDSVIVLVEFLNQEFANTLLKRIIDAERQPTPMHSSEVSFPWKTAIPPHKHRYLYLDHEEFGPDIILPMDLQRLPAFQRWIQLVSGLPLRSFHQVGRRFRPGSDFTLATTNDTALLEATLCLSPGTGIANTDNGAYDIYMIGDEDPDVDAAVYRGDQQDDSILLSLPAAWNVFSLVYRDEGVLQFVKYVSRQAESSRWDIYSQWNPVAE
In words: Ofd1 inhibition assay (Figure S12). Format: biochemical, yeast. To be noted: Ofd1 1 µM (Figure S12).

The next assay concerns the target T3, PHD2181-426 (Homo sapiens, UniProt Q9GZT9).
T3 construct: 181-426 (1 µM) was
Briefly: wLOGSY NMR binding experiment with PHD2. To be noted: 400 µM inhibitor, 50 µM PHD2.

pIC50: −log10 of the molar value. “Also recorded” adds a separate entry of the source. Where only a bound is given, the exact number is not on record here.

T3 sequence (Q9GZT9 181-426 limits assumed): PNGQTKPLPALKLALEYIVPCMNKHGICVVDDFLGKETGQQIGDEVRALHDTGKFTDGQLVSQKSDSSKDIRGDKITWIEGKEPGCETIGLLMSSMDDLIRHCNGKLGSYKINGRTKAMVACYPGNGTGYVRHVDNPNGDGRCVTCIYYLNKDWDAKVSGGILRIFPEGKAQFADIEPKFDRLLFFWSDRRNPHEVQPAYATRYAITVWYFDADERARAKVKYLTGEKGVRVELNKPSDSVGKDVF
Sequence of JARID1B (Q9UGL1 whole entry): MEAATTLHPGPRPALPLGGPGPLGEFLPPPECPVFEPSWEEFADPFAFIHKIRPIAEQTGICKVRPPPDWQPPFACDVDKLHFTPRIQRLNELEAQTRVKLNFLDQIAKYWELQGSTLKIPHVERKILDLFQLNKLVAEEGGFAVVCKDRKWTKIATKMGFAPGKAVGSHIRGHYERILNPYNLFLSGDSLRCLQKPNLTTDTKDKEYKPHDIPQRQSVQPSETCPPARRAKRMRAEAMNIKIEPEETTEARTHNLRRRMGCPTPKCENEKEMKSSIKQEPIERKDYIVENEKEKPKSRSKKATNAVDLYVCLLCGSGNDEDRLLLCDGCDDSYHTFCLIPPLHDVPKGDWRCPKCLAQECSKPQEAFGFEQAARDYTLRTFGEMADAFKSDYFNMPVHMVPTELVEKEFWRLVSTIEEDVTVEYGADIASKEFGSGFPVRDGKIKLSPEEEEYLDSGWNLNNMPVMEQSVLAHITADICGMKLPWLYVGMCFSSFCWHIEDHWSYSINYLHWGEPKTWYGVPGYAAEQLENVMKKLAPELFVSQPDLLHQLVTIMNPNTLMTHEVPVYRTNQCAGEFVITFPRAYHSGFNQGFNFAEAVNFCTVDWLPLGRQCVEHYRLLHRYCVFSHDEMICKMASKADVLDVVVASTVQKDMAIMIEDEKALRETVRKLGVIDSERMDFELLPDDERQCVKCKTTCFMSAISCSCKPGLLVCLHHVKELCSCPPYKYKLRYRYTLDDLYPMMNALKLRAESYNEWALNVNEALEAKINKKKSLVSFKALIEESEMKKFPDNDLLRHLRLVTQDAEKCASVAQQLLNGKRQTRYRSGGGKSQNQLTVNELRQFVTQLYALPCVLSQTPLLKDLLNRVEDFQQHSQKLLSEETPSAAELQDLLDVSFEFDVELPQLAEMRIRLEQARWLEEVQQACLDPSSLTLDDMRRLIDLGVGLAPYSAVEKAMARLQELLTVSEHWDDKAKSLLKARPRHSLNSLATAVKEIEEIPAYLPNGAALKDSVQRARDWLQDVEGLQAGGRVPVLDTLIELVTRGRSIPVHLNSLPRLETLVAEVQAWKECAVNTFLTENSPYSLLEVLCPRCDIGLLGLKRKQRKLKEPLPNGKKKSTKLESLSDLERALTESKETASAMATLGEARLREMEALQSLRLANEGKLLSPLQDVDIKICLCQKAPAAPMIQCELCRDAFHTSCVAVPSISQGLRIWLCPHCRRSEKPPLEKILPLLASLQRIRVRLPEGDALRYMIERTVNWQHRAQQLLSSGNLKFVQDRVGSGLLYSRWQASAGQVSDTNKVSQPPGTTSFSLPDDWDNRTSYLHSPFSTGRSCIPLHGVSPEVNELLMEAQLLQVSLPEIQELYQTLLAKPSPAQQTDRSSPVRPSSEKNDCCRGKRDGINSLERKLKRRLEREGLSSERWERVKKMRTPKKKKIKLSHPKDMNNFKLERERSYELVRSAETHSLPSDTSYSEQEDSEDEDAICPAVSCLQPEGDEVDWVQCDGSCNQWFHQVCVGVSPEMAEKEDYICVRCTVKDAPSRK
Sequence of FIH (Q9NWT6 whole entry): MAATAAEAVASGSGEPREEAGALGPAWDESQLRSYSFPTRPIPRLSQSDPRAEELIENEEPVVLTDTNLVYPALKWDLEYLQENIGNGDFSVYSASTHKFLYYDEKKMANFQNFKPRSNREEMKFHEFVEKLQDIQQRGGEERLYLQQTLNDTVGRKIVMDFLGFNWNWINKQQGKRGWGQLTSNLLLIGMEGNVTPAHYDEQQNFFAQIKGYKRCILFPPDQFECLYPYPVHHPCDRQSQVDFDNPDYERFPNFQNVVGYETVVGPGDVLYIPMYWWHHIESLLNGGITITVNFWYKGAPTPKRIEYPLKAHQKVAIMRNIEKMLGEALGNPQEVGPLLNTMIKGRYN

Regarding `Cn1c(O)c(C(=O)CCc2cccs2)c(=O)n(C)c1=O` [compound 42], the negative logarithm of the IC50 (pIC50) at FIH, at KDM4A and against JARID1B was less than 4.00 each time. The “inhibition of Ofd1, in words” value on Ofd1 was “potently inhibit”. In addition, the “binding to PHD2 by wLOGSY NMR, in words” value on PHD2181-426 (listed as CCT4) is “weaker; also recorded: only weak binding to PHD2”.
In the case of `Cn1c(O)c(C(=O)CCc2ccccc2)c(=O)n(C)c1=O` [compound 26], the pIC50 against FIH, against KDM4A and at JARID1B was less than 4.00 in each case. For the same compound, on Ofd1, the “inhibition of Ofd1, in words” value is on record as “potently inhibit”. For the same compound, the “binding to PHD2 by wLOGSY NMR, in words” value on PHD2181-426 (listed as CCT3) is given as “weaker; also recorded: only weak binding to PHD2”.
